# Results from publication PMC11662161 (Neuro-Oncology Advances, 2024).
# “And” between values parts separate entries of the source, which are not always exact repeats. Identical values can stand only once. Like-named read-outs stand apart in the source and are kept apart here.
# Key:
# [1] = system: patients with recurrent HGG; test: Phase II trial NCT01967810: safety and tolerability (adverse events, NCI CTCAE v4.0; treatment discontinuation)
# Method: Subsequently, a total of 69 patients were enrolled at 600 mg/m^2 as a starting dose. Dose reductions or delays were allowed if toxicity was observed. Patients were monitored for a minimum of 1 h after the completion of each infusion.
# Dose reductions were mandatory for all patients who experienced any (life-threatening) Grade 4 toxicity, and for selected Grade 3 toxicities, such as Grade 3 pneumonitis, Grade 3 peripheral neuropathy or CNS toxicity, or Grade 3 cardiac adverse events (AEs).
# Evaluation of safety included the analysis of AEs and the analysis of laboratory and vital signs data using the safety population. Verbatim descriptions of AEs were mapped according to the Medical Dictionary for Regulatory Activities (MedDRA) v17.0 or later thesaurus terms and graded according to the NCI CTCAE v4.0. […] Laboratory data was analyzed with shift tables and summaries of change from baseline to maximum post-treatment value based on local lab normal ranges. Change from baseline in vital signs were summarized. Neurocognitive function test data was analyzed by descriptive statistics (mean, SD and median) and change in neurocognitive function from baseline to each follow-up time point was categorized as improved, stable, or declined based on the reliable change index (RCI) for each test.
# [2] = system: recurrent high-grade glioma (HGG); test: Phase II trial NCT01967810: efficacy (RANO response, PFS, OS); type: in vivo, human; settings: for duration (of response) rate: identical at 3, 6 and 12 months
# Description: The protocol was reviewed and approved by the institutional review board of each participating center. All patients gave written informed consent for trial participation. According to 2007 WHO classification used in this study, HGG included grade 3 AGs such as anaplastic astrocytomas (AAs), anaplastic oligodendrogliomas (AOs), and anaplastic oligoastrocytomas (AOAs), as well as grade 4 GBM.[16] […] Additionally, a Karnofsky Performance Scale (KPS) score ≥ 80, neurologic stability with patients receiving stable doses of corticosteroids and anticonvulsants, and normal hepatic, renal, and hematologic function with ≥ 3 months of expected survival were requirements for inclusion. In patients with gliomas refractory to bevacizumab, radiological confirmation of tumor progression during bevacizumab therapy was necessary.
# Gadolinium-enhanced magnetic resonance imaging of the brain was used to evaluate disease extent beginning at baseline and continued every two treatment cycles (ie, every 6 ± 2 weeks) until disease progression or unacceptable treatment toxicity. […] The Response Assessment in Neuro-Oncology (RANO) was utilized for two-dimensional intracranial tumor assessment.[17]
# The primary objectives of the study were to determine (1) the objective response rate (ORR) in bevacizumab-naïve recurrent GBM patients (Arm 1), (2) progression-free survival rate at 3 months (PFS3) in the bevacizumab-refractory recurrent GBM patients (Arm 2), and (3) ORR in recurrent AG patients (Arm 3). The arms were predefined. Bevacizumab was not continued in bevacizumab-refractory patients.
# The secondary objectives of this study were to determine (1) the ORR in Arm 2; (2) number of patients without progression at 3, 6, and 12 months in Arms 1 and 3; (3) number of patients without progression at 6 and 12 months in Arm 2; (4) median progression-free survival in each arm; (5) median duration of response in each arm; (6) median overall survival (OS) in each arm; (7) safety and tolerability; and (8) plasma pharmacokinetic profile.
# ORR was defined as the proportion of patients with a CR or PR. The assessment was made according to RANO criteria based on the investigator’s assessment.[17] The ORR was the primary endpoint for Arms 1 and 3 and a secondary endpoint for Arm 2. ORR for each arm was calculated, and a 2-sided 95% confidence interval was provided using the exact method based on the binomial distribution. PFS was defined as the time from study enrollment to documented disease progression as determined by the local investigator, clear clinical progression in the absence of a brain MRI determination of progression, or death from any cause, whichever occurred first. PFS was the primary endpoint for Arm 2 and a secondary endpoint for Arms 1 and 3. Patients with a clinical determination of progression underwent an MRI assessment. If a clinical determination of progression for a patient was confirmed by an MRI, the date of the MRI was considered as the progression date for that patient. The data for patients who were still alive and free from disease progression at the time of data cutoff were administratively censored on the last assessment (or, if no post-baseline tumor assessment, at the time of first dose plus 1 day). Data for patients who were lost to follow-up prior to documented disease progression were censored at the last disease assessment date when the patient was known to be disease progression-free. Kaplan–Meier methodology was used to estimate the 3-month PFS rate, and 95% confidence intervals for PFS rate were computed using Greenwood’s formula by arms. In addition, the median PFS was calculated for each arm.
# [3] = system: patients with recurrent HGG; test: Phase II trial NCT01967810: neurocognitive function testing (HVLT-R, TMT A/B, COWA; reliable change index); type: in vivo, human; settings: for neurocognitive function stable or improved (RCI), across the battery of tests: end of treatment visit
# Method: The end of treatment assessment was only performed if no neurocognitive assessment was done within 30 (± 3) days. Information regarding the patient’s demographic background was collected. Neurocognitive test administrators were trained and provided with a manual to ensure standardized test administration. Neurocognitive test results were evaluated and read centrally. Three domains of neurocognitive function were measured as exploratory endpoints in this study: memory, visuomotor scanning speed (eg, complex visual scanning with a motor component), and executive function (eg, mental flexibility). The neurocognitive battery included the following tests: Hopkins Verbal Learning Tests—Revised (HVLT-R Total Recall, Delayed Recall, Delayed Recognition), Trail Making Test Part A and Part B[18] (TMBTA, TMBTB), and Controlled Oral Word Association (COWA).[19] […]
# [4] = system: recurrent high-grade glioma (HGG); settings: ref Dmello et al., submitted to Neuro-Oncology Advances, cited from earlier work
# Description: Variable response to paclitaxel between patients is a well-known phenomenon for several cancers, with ~50% of patients being susceptible to this drug as a monotherapy. We recently reported endoplasmic reticulum translocon complex protein SSR3 as a predictive biomarker for glioma and breast cancer susceptibility to this drug.[22] In a companion manuscript (Dmello et al., submitted to Neuro-Oncology Advances), we report an analysis of available tumor samples from this phase II trial (NCT01967810), where we evaluated the correlation with baseline SSR3 expression with OS on this cohort. This study ...
# recurrent glioma tumors = settings: following a single intravenous infusion; cited from earlier work
# Description: (§1) The overall safety profile was favorable and consistent with the known side effect profile of unconjugated paclitaxel.
# [5] = system: brain metastases from breast tumors and other advanced solid tumors; settings: doses ≥ 420 mg/m^2, cited from earlier work
# Description: as §1
# [6] = % of patients, N = 73, all arms
# [7] = % of patients, N = 73, table cell prints n (%)
substance,measurement,setting,value
paclitaxel trevatide [ANG1005],most common AEs: alopecia,[1]; [6],31.5% and 32%
same,most common AEs: fatigue,[1]; [6],30.1% and 30%
same,most common AEs: hematologic,[1]; [6],32.9%
same,most commonly reported AEs: neutropenia,[1]; [6],33%
same,patients with a Grade 5 SAE,"[1]; % of patients, N = 73, 3 patients",4.1%
same,patients with a Grade 4 SAE,"[1]; % of patients, N = 73, 9 patients",12.3%
same,patients with a Grade 3 SAE,"[1]; % of patients, N = 73, 19 patients",26.0%
same,related AEs by SOC: gastrointestinal disorders,"[1]; % of patients, N = 73, 34 patients",46.6%
same,related AEs by SOC: skin and subcutaneous tissue disorders,"[1]; % of patients, N = 73, 35 patients",47.9%
same,related AEs by SOC: blood and lymphatic system disorders,"[1]; % of patients, N = 73, 37 patients",50.7%
same,related AEs by SOC: general disorders and administration site reactions,"[1]; % of patients, N = 73, 42 patients",57.5%
same,AEs: skin and subcutaneous disorders,"[1]; % of patients, N = 73, 44 patients",60.3%
same,AEs: gastrointestinal disorders,"[1]; % of patients, N = 73, 45 patients",61.6%
same,AEs: general disorders and administration site reactions,"[1]; % of patients, N = 73, 50 patients",68.5%
same,AEs: nervous system disorders including peripheral neuropathy,"[1]; % of patients, N = 73, 57 patients",78.1%
same,SAEs related to ANG1005: patients reporting at least one related SAE,[1]; [7],28.8%
same,SAEs: patients reporting at least one event,[1]; [7],45.2%
same,treatment discontinued due to AEs,"[1]; % of subjects, N = 73, 7 subjects",9.6%
same,number of AEs that led to death,[1]; Arm 3 (hydrocephalus),one
same,patients who experienced at least one AE,"[1]; N = 73, all arms",All patients
same,number of AEs that led to death,"[1]; all arms, N = 73, only septic shock considered potentially related to ANG1005",3
same,PFS rate,"[2]; 3 months, Arm 1, 95% CI: 12.2, 56.4",33.3%
same,PFS rate,"[2]; 3 months, Arm 3, 95% CI: 18.9, 53.0",35.7%
same,median duration of response,"[2]; 3 responders (2 in Arm 1, 1 in Arm 3), 95% CI: 2.1, NA",13.4 months
same,PFS rate,"[2]; 6 months, Arm 1, 95% CI: 8.3, 49.6",26.7%
same,PFS rate,"[2]; 6 months, Arm 3, 95% CI: 18.9, 53.0",35.7%
same,PFS rate,"[2]; 12 months, Arm 1, 95% CI: 2.2, 34.6",13.3%
same,PFS rate,"[2]; 12 months, Arm 3, 95% CI: 11.8, 44.4",26.8%
same,clinical benefit rate (SD or better),"[2]; Arm 1, mITT",46.6%
same,progressive disease,"[2]; Arm 1, mITT, 8 subjects",53.3%
same,median OS,"[2]; Arm 1, mITT, 95% CI: 3.4, 14.6",13.4 months
same,median OS,"[2]; Arm 1, safety population, 95% CI: 3.06, 13.67",6.74 months
same,median duration of response,"[2]; Arm 1, 95% CI: 2.1, 13.4",7.75 months
same,duration (of response) rate,"[2]; Arm 1, 95% CI: 0.6, 91.0",50.0%
same,responders (CR or PR),"[2]; Arm 2 (bevacizumab-refractory GBM), mITT, secondary endpoint",none
same,PFS rates,"[2]; Arm 2, at each time point (3, 6, 12 months), PFS3 is the primary endpoint",0
same,clinical benefit rate (SD or better),"[2]; Arm 2, mITT",22.2%
same,subjects who progressed or died,"[2]; Arm 2, mITT",All subjects
same,progressive disease,"[2]; Arm 2, mITT, 7 subjects",77.8%
same,median OS,"[2]; Arm 2, mITT, 95% CI: 1.9, 9.7",5.8 months
same,median OS,"[2]; Arm 2, safety population, 95% CI: 1.94, 6.67",3.02 months
same,median duration of response,[2]; Arm 3,not reached
same,clinical benefit rate (SD or better),"[2]; Arm 3, mITT",53.6%
same,progressive disease,"[2]; Arm 3, mITT, 13 subjects",46.4%
same,median OS,"[2]; Arm 3, mITT, 95% CI: 10.7, 35.3",18.2 months
same,median OS,"[2]; Arm 3, safety population, 95% CI: 8.67, 21.95",16.03 months
same,duration (of response) rate,"[2]; Arm 3, 95% CI: 100,100",100%
same,overall median PFS,"[2]; across all 3 arms, mITT, investigator-assessed, 95% CI: 1.4, 2.1",1.4 months
same,"overall ORR (CR or PR, RANO, investigator)","[2]; mITT n = 52, all arms, 3 subjects, 95% CI: 1.2, 15.9",5.8%
same,subjects who progressed or died,"[2]; mITT n = 52, 47 subjects",90.4%
same,overall median OS,"[2]; mITT population n = 52, 95% CI: 7.03, 14.78",12.94 months
same,progressive disease,"[2]; overall, mITT n = 52, 28 subjects",53.8%
same,duration (of response) rate,"[2]; overall, 95% CI: 5.4, 94.5",66.7%
same,overall median OS,"[2]; safety population n = 73, 95% CI: 6.34, 12.94",8.67 months
same,"neurocognitive function stable or improved (RCI), across the battery of tests","[3]; % of patients, Arm 1 (n = 5)",40–100%
same,CTB composite score: decline in neurocognitive function,"[3]; % of patients, Arm 1, EOT",40%
same,CTB composite score: stable neurocognitive function,"[3]; % of patients, Arm 1, EOT",60%
same,"neurocognitive function stable or improved (RCI), across the battery of tests","[3]; % of patients, Arm 2 (n = 4)",50–75%
same,CTB composite score: decline in neurocognitive function,"[3]; % of patients, Arm 2, EOT",50%
same,CTB composite score: stable neurocognitive function,"[3]; % of patients, Arm 2, EOT",50%
same,"neurocognitive function stable or improved (RCI), across the battery of tests","[3]; % of patients, Arm 3 (n = 13)",69–100%
same,CTB composite score: decline in neurocognitive function,"[3]; % of patients, Arm 3, EOT",25%
same,CTB composite score: improved neurocognitive function,"[3]; % of patients, Arm 3, EOT",8%
same,CTB composite score: stable neurocognitive function,"[3]; % of patients, Arm 3, EOT",67%
same,CTB composite score: improved neurocognitive function,"[3]; Arm 1, EOT",no patients
same,CTB composite score: improved neurocognitive function,"[3]; Arm 2, EOT",no patients
same,median OS,"[4]; patients with high SSR3 expression, 95% CI 14.59, NA, P = .2 vs low",18 months
same,median OS,"[4]; patients with low SSR3 expression, 95% CI 5.41, NA",9 months
same,transport across the BBB and tumor penetration,recurrent glioma tumors,tumor penetration at therapeutic concentrations
same,"overall PR, non-CNS peripheral metastases response",[5]; 4/16 patients,25%
same,"overall partial response (PR), CNS response",[5]; 4/18 patients,22%
same,"stable disease (SD), CNS response",[5]; 10/18 patients,56%
